Legend:
[1] = tested on: mice; experiment: Cytokine induction (IL-6, IP-10) in mice after intravenous administration; assay type: in vivo; design: IL-6 / IP-10: unit not given here; conditions: 0.5 mpk; for IL-6 / IP-10: 6 hours; for Cytokine expression (pg/ml) IL-6 (6 h) / Cytokine expression (pg/ml) IP-10 (6 h): hEPO mRNA
Procedure, shortened: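 Nanoparticle compositions given intravenously to mice at 0.5 mpk; serum cytokine concentrations measured at 6 hours, with MC3 formulation and PBS as comparators.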

[2] = tested on: rats; experiment: Cytokine induction (IP-10) in rats after intravenous administration; assay type: in vivo; conditions: rat, 6 hours after administration of hEPO nanoparticle compositions, 2.0 mpk
Procedure: (§1) The expression of hEPO and cytokine induction in rats intravenously administered a nanoparticle composition at a dose of 2.0 mpk was measured at 6 h.
(§2) Table 19 summarizes the hEPO expression, IP-10 induction, liver and spleen levels, and alanine aminotransferase (ALT) and aspartate aminotransferase (AST) measured upon intravenous administration of formulations including Compounds 48, 49, and 50 to rat at 0.2 and 2 mpk and hEPO mRNA. hEPO concentrations were measured 6 hours after administration, while cytokine induction and liver and spleen levels were measured 48 hours after administration. hEPO and IP-10 concentrations are presented in pg/ml, while liver levels are provided in ng/g. ALT and AST levels are presented in international units.

[3] = tested on: rats; experiment: hEPO expression in rats after intravenous administration; assay type: in vivo, rat; conditions: for hEPO expression: rat
Procedure: as §1
(§3) The expression of hEPO in rats intravenously administered a nanoparticle composition at a dose of 0.2 mpk or 2.0 mpk was measured at 6 hours. Table 16 summarize the ratio of hEPO expression levels using various nanoparticle compositions as compared to the hEPO expression level using MC3 formulation and the lipid levels in the liver measured 48 hours after administration, as described above. Tables 17 and 18 summarize the lipid levels in the liver and spleen measured 48 hours after administration of Compounds 28, 33, 53, and 54. Liver and spleen levels represent the average values calculated for 3 rats in each group. As is shown in Tables 17 and 18, less than 10% of Compounds 28, 33, 53, and 54 remained in the liver after 48 hours, while greater than 60% of MC3 remained.
as §2
(§4) The expression of hEPO induced by intravenous administration to rats of nanoparticle compositions at various doses was measured at 2, 4, 6, 8, 24, and 48 hour time points. FIGS. 3-6 respectively summarize the hEPO expression measured upon intravenous administration of formulations including Compounds 26, 18, 25, and MC3 to rat at various doses. The lipid levels of Compound 26 in the liver after 48 hours were about 19%.
The expression of hEPO and lipid levels in the liver and spleen in rats intravenously administered a nanoparticle composition at a dose of 0.2 mpk was measured at various timepoints. Compounds 18 and 25 were selected for comparison with MC3. Lipids were formulated according to the standard MC3 formulation described above. Rats were administered intravenously a single 0.2 mpk dose and expression monitored at 0.25, 0.5, 1, 2, 4, 8, 24, and 48 hours after administration. […]

[4] = tested on: rats; experiment: Residual lipid levels in liver and spleen of rats (UPLC-MS quantification); assay type: in vivo, rat; conditions: for % Lipid Remaining in liver, 48 h* 2 mpk: assuming 300 g rat and 15 g liver; for Lipid level in liver / Lipid level in spleen: rat, i.v., 0.2 mpk
Procedure: At 48 h liver tissue was harvested for lipid quantification. To pre-weighed tissues, Milli-Q water was added (900 μL water per 100 mg tissue). Tissues were homogenized using an Omni probe homogenizer until uniform. 50 μL of samples and matrix calibration standards were aliquoted into a 96-well plate. 50 μL of blank matrix for matrix blanks and control blanks were aliquoted. 400 μL IS spiking solution were manually added to all samples except matrix blanks. 400 μL of 50:50 ACN:IPA were manually added to matrix blanks. The plate was covered and the samples vortexed and centrifuged for 5 minutes at >3000 rpm. 200 μL of the samples were transferred into a clean 96-well plate for analysis. Samples were analyzed on a Waters Acquity UPLC using a Higgins Analytical Clipeus C8 column ([…], 30×2.1 mm) and a gradient of either 70-95% or 60-95% (Mobile Phase A: 5 mM ammonium formate in 50:50:1 H2O:MeOH:formic acid; Mobile Phase B: 5 mM ammonium formate in 100:1 MeOH:formic acid) over 1.3 min at 1.2 mL/min (column temperature 55° C.). Detection was based on electrospray ionization (ESI) in positive mode using a Sciex API5500 Mass Spectrometer.
as §3, §2, §4
The expression of hEPO and lipid levels in the liver and spleen in rats intravenously administered a nanoparticle composition at a dose of 0.2 mpk was measured at various timepoints. Compounds 18 and 25 were selected for comparison with MC3. Lipids were formulated according to the standard MC3 formulation described above. Rats were administered intravenously a single 0.2 mpk dose and expression monitored at 0.25, 0.5, 1, 2, 4, 8, 24, and 48 hours after administration.

| SMILES | IL-6 [1] | IP-10 [1] | IP-10 [2] [pg/mL] | hEPO expression ([3]; i.v., 0.2 mpk, 0.25 h) [pg/mL] | hEPO expression ([3]; i.v., 0.2 mpk, 0.5 h) [pg/mL] | hEPO expression ([3]; i.v., 0.2 mpk, 1 h) [pg/mL] | hEPO expression ([3]; i.v., 0.2 mpk, 2 h) [pg/mL] | hEPO expression ([3]; i.v., 0.2 mpk, 4 h) [pg/mL] | hEPO expression ([3]; i.v., 0.2 mpk, 8 h) [pg/mL] | hEPO expression ([3]; i.v., 0.2 mpk, 24 h) [pg/mL] | hEPO expression ([3]; i.v., 0.2 mpk, 48 h) [pg/mL] | % Lipid Remaining in liver, 48 h* 2 mpk ([4]; rats, 48 h) [%] | Cytokine expression (pg/ml) IL-6 (6 h) [1] [pg/mL] | Cytokine expression (pg/ml) IP-10 (6 h) [1] [pg/mL] | further results |
| --- | --- | --- | --- | --- | --- | --- | --- | --- | --- | --- | --- | --- | --- | --- | --- |
| CCCCCCCCCCCOC(=O)CCCCCN(CCO)CCCCCCCC(=O)OC(CCCCCCCC)CCCCCCCC [Compound 25, Heptadecan-9-yl 8-((2-hydroxyethyl)(6-oxo-6-(undecyloxy)hexyl)amino)octanoate] | 233.45 | 1194.13 | 533.5 | 0 | 19553 | 434299 | 2042807 | 3176560 | 2631633 | 869374 | 103089 | 1.32 | – | – | – |
| CCCCCC=CCC=CCCCCCCCCC(CCCCCCCCC=CCC=CCCCCC)OC(=O)CCCN(C)C (centres unmarked) [MC3, heptatriaconta-6,9,28,31-tetraen-19-yl 4-(dimethylamino)butanoate, reference compound] | 124.42 | 504.90 | 688.3 | 0 | 42457 | 93720 | 524093 | 601307 | 1536833 | 703619 | 64687 | 87 | 19.85 | 117.94 | hEPO expression ([3]; 6 h, 2 mpk, intravenous): 1.33e+07 pg/mL; Lipid/MC3 hEPO conc. ratio 0.2 mpk ([3]; rats, intravenous, 0.2 mpk, 6 hours): 1; Lipid/MC3 hEPO conc. ratio 2 mpk ([3]; rats, intravenous, 2 mpk, 6 hours): 1; remained in the liver after 48 hours ([4]; rats, intravenous, 48 hours): greater than 60% |
| CCCCCCCCCOC(=O)CCCCCCCN(CCO)CCCCCCCC(=O)OC(CCCCCCCC)CCCCCCCC [Compound 18, Heptadecan-9-yl 8-((2-hydroxyethyl)(8-(nonyloxy)-8-oxooctyl)amino)octanoate] | 78.76 | – | 517.3 | 20227 | 20743 | 194353 | 238107 | 514807 | 915320 | 412051 | 52361 | 0.018 | 10.16 | 299.93 | Lipid level in liver ([4]; 0.25 h): 5374 ng/g; Lipid level in spleen ([4]; 0.25 h): 1230 ng/g; Lipid level in liver ([4]; 0.5 h): 6023 ng/g; Lipid level in spleen ([4]; 0.5 h): 2017 ng/g; Lipid level in liver ([4]; 1 h): 6053 ng/g; Lipid level in spleen ([4]; 1 h): 3213 ng/g; Lipid level in liver ([4]; 2 h): 2037 ng/g; Lipid level in spleen ([4]; 2 h): 3070 ng/g; Lipid level in liver ([4]; 4 h): 839 ng/g; Lipid level in spleen ([4]; 4 h): 3770 ng/g; Lipid level in liver ([4]; 8 h): 296 ng/g; Lipid level in spleen ([4]; 8 h): 1345 ng/g; Lipid level in liver ([4]; 24 h): 5 ng/g; Lipid level in spleen ([4]; 24 h): 271 ng/g; Lipid level in liver ([4]; 48 h): 5374 ng/g; Lipid level in spleen ([4]; 48 h): 92 ng/g |

Source: patent publication US12404232B2, “Compounds and compositions for intracellular delivery of therapeutic agents” (ModernaTX, Inc., priority 2015, dated 2025)
